Data as given in patent US12532888B2, “Methods and uses of a mixture comprising alpha-cypermethrin and dinotefuran for combating or controlling mosquitoes” (priority 2020, dated 2026).

System: yellow fever mosquitoes (Aedes aegypti)
Assay: whole plant or invertebrate
Conditions: for Colby Expected: 3 days after exposure
Protocol: Glass vials (20 mL scintillation) were treated with 445 μL of varying concentrations of α-cypermethrin dissolved in acetone, respectively dinotefuran or mixtures of α-cypermethrin and dinotefuran in the indicated ratios. Vials were turned on their sides and placed on an automated roller table. The vials were rolled (6 rpm) uncapped to allow an even coating of the treatment.
After rolling, vials were allowed to completely dry for at least an hour. Each treatment was replicated five times. Prior to exposure, yellow fever mosquitoes (Aedes aegypti) were incapacitated using a chill table. Approximately six mosquitoes were placed into each vial and were exposed to treatments at room temperature for exactly one hour. A small amount of CO2 was used to incapacitate the mosquitoes to facilitate removal from treatment. Insects were then transferred to 16 oz plastic holding containers. A cotton wick moistened with 10% sugar water was provided in each container. Holding containers were moved into an incubator with environmental conditions of 27° C. and 80% relative humidity. Wicks were rehydrated daily and mortality was assessed at 3 days after exposure (DAE).
Ataxia+mortality data were used to determine whether there was a synergistic effect in the combined use of dinotefuran and α-cypermethrin.
Abbott's correction for control mortality and the Colby method for testing synergy were used to analyze combination data. […] Colby's expected mortality per combination observation=% mortality (A)+% mortality (B)−(% mortality (A)×% mortality (B))/100. Synergy ratio=% observed mortality/% Colby expected mortality.
Additive interactions have synergy ratios equal to 1, antagonistic interactions have synergy ratios of less than 1, and synergistic interactions have synergy ratios of greater than 1.

Row | SMILES | mortality at 0.0732 mg/m2 (Aedes aegypti, 72 h) | mortality at 7.32 mg/m2 (Aedes aegypti, 72 h) | mortality at 0.00732 mg/m2 (Aedes aegypti, 72 h) | Colby Expected (Table 1, expected mortality of the combination 0.00732 + 0.0732 mg/m^2 by Colby's formula) | Colby Expected (Table 2, expected mortality of the combination 0.00732 + 7.32 mg/m^2 by Colby's formula)
1 | CNC(=N[N+](=O)[O-])NCC1CCOC1 (racemic) [Dinotefuran, (RS)-1-methyl-2-nitro-3-(tetrahydro-3-furylmethyl) guanidine] | 0% | 0% |  |  | 
2 | CC1(C)C(C=C(Cl)Cl)C1C(=O)OC(C#N)c1cccc(Oc2ccccc2)c1 (racemic) [Alpha-cypermethrin, racemate comprising (R)-α-cyano-3-phenoxybenzyl (1S, 3S)-3-(2,2-dichlorovinyl)-2,2-dimethylcyclopropanecarboxylate; (S)-α-cyano-3-phenoxybenzyl (1R, 3R)-3-(2,2-dichlorovinyl)-2,2-dimethylcyclopropanecarboxylate] |  |  | 13.9% | 13.9% | 13.9%
